pIC50: −log10 of the molar value.
Target: T1, Human erythrocyte 20S proteasome (Homo sapiens, UniProt P28074)
T1 construct: Enzyme: Human erythrocyte 20S proteasome; from tissue; host or cells: human erythrocytes
Assay: In vitro enzymatic assay of proteasome inhibitory activity (Suc-Leu-Leu-Val-Tyr-AMC substrate)
Type: biochemical
Settings: for inhibition at 0.5 µM: Concentration 500 nM; for pIC50: human erythrocyte 20S proteasome, 10 µM Suc-Leu-Leu-Val-Tyr-AMC, 37°C; for inhibition at 1 µM: Concentration 1000 nM
Method: Example 20: In vitro enzymatic assay of proteasome inhibitory activity.
Substrate: Suc-Leu-Leu-Val-Tyr-AMC
Assay buffer: 250 mM HEPES, pH 7.5, 0.5 mM EDTA, 0.03% SDS, 0.05% Igepal CA-630.
Enzyme: Human erythrocyte 20S proteasome
In vitro proteasome inhibitory activity of the compounds of the invention is evaluated by spectrofluorimetric quantitation of AMC. Stock solutions of compounds of the invention are prepared in dimethyl sulphoxide (DMSO). Test compound and/or vehicle is preincubated with […] enzyme (human erythrocyte 20S proteasome) in modified HEPES buffer pH 7.5 and 1% final concentration of DMSO for 15 minutes at 37°C. The reaction is initiated by addition of 10 µM Suc-Leu-Leu-Val-Tyr-AMC for another 30 minutes incubation period at 37°C. Determination of the release of AMC is read spectrophotometrically (excitation, 380 nm; emission, 460 nm). IC50 values are determined by a non-linear, least squares regression analysis using MathlQTM (ID Business Solutions Ltd., UK).

Structure (SMILES) | inhibition at 0.5 µM | pIC50 | inhibition at 1 µM | inhibition at 0.1 µM (Concentration 100 nM) | inhibition at 0.05 µM (Concentration 50 nM)
CC(C)C[C@H](NC(=O)[C@@H]1N[C@H](c2ccccc2)[C@@H]([N+](=O)[O-])[C@@H]1c1ccc([N+](=O)[O-])cc1)B(O)O [Example 8, (R)-3-methyl-1-((2R,3R,4S,5R)-4-nitro-3-(4-nitrophenyl)-5-phenylpyrrolidine-2-carboxamido)butylboronic acid] | 69% | 6.82 |  |  | 
CC(C)C[C@H](NC(=O)[C@H]1N[C@@H](c2ccccc2)[C@H]([N+](=O)[O-])[C@H]1c1ccccc1)B(O)O [Example 2, (R)-3-methyl-1-((2S,3S,4R,5S)-4-nitro-3,5-diphenylpyrrolidine-2-carboxamido)butylboronic acid] |  | 6.37 | 70% |  | 
CC(C)C[C@H](NC(=O)[C@H]1N[C@@H](c2ccccc2)[C@H]2C(=O)N(C)C(=O)[C@H]21)B(O)O [Example 18, (R)-3-methyl-1-((1S,3R,3aS,6aR)-5-methyl-4,6-dioxo-3-phenyloctahydropyrrolo[3,4-c]pyrrole-1-carboxamido)butylboronic acid] |  | 6.04 | 53% |  | 
COC(=O)[C@H]1[C@H](C(=O)OC)[C@H](c2ccccc2)N[C@@H]1C(=O)N[C@@H](CC(C)C)B(O)O [Example 17, (R)-1-((2S,3S,4S,5R)-3,4-bis(methoxycarbonyl)-5-phenylpyrrolidine-2-carboxamido)-3-methylbutylboronic acid] | 20% |  |  |  | 
CC(C)C[C@H](NC(=O)[C@@H]1N[C@H](c2cccc3ccccc23)[C@H]([N+](=O)[O-])[C@H]1c1ccccc1)B(O)O [Example 16, (R)-3-methyl-1-((2R,3S,4R,5R)-5-(naphthalen-1-yl)-4-nitro-3-phenylpyrrolidine-2-carboxamido)butylboronic acid] | 33% |  |  |  | 

Other lines, results leading:

inhibition at 0.5 µM | pIC50 | inhibition at 1 µM | inhibition at 0.1 µM (Concentration 100 nM) | inhibition at 0.05 µM (Concentration 50 nM) | Structure (SMILES)
 | 7.34 |  | 68% |  | CC(C)C[C@H](NC(=O)[C@@H]1N[C@H](c2ccccc2)[C@@H]2C(=O)N(C)C(=O)[C@@H]21)B(O)O [Example 19, (R)-3-methyl-1-((1R,3S,3aR,6aS)-5-methyl-4,6-dioxo-3-phenyloctahydropyrrolo[3,4-c]pyrrole-1-carboxamido)butylboronic acid]
77% | 7.11 |  |  |  | Cc1ccc([C@H]2[C@H]([N+](=O)[O-])[C@@H](c3ccccc3)N[C@H]2C(=O)N[C@@H](CC(C)C)B(O)O)cc1 [Example 5, (R)-3-methyl-1-((2R,3R,4S,5R)-4-nitro-5-phenyl-3-p-tolylpyrrolidine-2-carboxamido)butylboronic acid]
69% | 6.82 |  |  |  | CC(C)C[C@H](NC(=O)[C@@H]1N[C@H](c2ccccc2)[C@@H]([N+](=O)[O-])[C@@H]1c1ccc2ccccc2c1)B(O)O [Example 9, (R)-3-methyl-1-((2R,3R,4S,5R)-3-(naphthalen-2-yl)-4-nitro-5-phenylpyrrolidine-2-carboxamido)butylboronic acid]
 | 7.41 |  |  | 54% | CC(C)C[C@H](NC(=O)[C@@H]1N[C@H](c2cccc3ccccc23)[C@@H]([N+](=O)[O-])[C@@H]1c1ccccc1)B(O)O [Example 13, (R)-3-methyl-1-((2R,3R,4S,5R)-5-(naphthalen-1-yl)-4-nitro-3-phenylpyrrolidine-2-carboxamido)butylboronic acid]
72% | 7.00 |  |  |  | CC(C)C[C@H](NC(=O)[C@@H]1N[C@H](c2cccnc2)[C@@H]([N+](=O)[O-])[C@@H]1c1ccccc1)B(O)O [Example 15, (R)-3-methyl-1-((2R,3R,4S,5R)-4-nitro-3-phenyl-5-(pyridin-3-yl)pyrrolidine-2-carboxamido)butylboronic acid]

Reference: EP2910557A1, “Enantiopure tetrasubstituted pyrrolidines as scaffolds for proteasome inhibitors and medicinal applications thereof” (Ikerchem, S.L., priority 2014, dated 2015)
